Source: patent US11318131B2, “Nanoliposomal irinotecan for use in treating small cell lung cancer” (Ipsen Biopharm Ltd., priority 2015, dated 2022)
Where two headings read alike, the source gives them in different places.

Experiments:
DMS-114 xenograft [1] = experiment: DMS-114 SCLC xenograft, NOD/SCID mice
NCI-H1048 xenograft [2] = experiment: NCI-H1048 SCLC xenograft, treatment naive; conditions: for anti-tumor activity / response (in words): NCI-H1048, irinotecan 33 mg/kg IV, weekly
DMS-53 xenograft = experiment: DMS-53 SCLC xenograft; conditions: nal-IRI 16 mg/kg IV, topotecan 0.83 mg/kg/wk days 1-2, weekly
[3] = test system: small cell lung cancer (SCLC); conditions: second line SCLC, cited from earlier work; for overall survival: certain regimens; for grade 3 or greater diarrhea / grade 3 or greater neutropenia rates / overall response rates / overall survival (OS) / progression free survival (PFS): topotecan 1.5 mg/m^2 days 1-5 every 3 weeks, non-liposomal irinotecan 300 mg/m^2 every 3 weeks
NCI-H1048 xenograft [4] = experiment: Second line SCLC model: NCI-H1048 after carboplatin plus etoposide; assay type: in vivo; conditions: weekly: nal-IRI 16 mg/kg IV; irinotecan 33 mg/kg IV; topotecan 1.66 mg/kg/wk IP days 1 and 2
Protocol: As described below, mice bearing NCI-H1048 SCLC tumors were treated with a carboplatin plus etoposide, a first line regimen in SCLC. Once the tumors escaped growth control by carboplatin plus etoposide, mice were randomized to either continue treatment with carboplatin plus etoposide or switch to second line treatment with either irinotecan liposome injection, non-liposomal irinotecan or topotecan.
NOD/SCID mice with NCIH1048 SCLC xenograft tumors were treated weekly with the combination of 30 mg/kg carboplatin plus 25 mg/kg etoposide. […] . […] . […] . FIG. 21B is a survival graph for mice on each of the treatments.

DMS-114 xenograft [5] = experiment: DMS-114 xenograft, topotecan-treated tumors; conditions: nal-IRI 16 mg/kg; irinotecan 33 mg/kg
DMS-114 SCLC cell line = experiment: Cell growth inhibition kinetics, IncuCyte ZOOM System; assay type: cell-based; conditions: DMS-114, time-course of 88 hours
DMS114 SCLC cell line = test system: DMS114 SCLC cell line
Protocol: (§1) Irinotecan liposome injection was administered intravenously to mice bearing xenograft tumors. At 24 hours post administration, mice were sacrificed and tumors were harvested. Irinotecan and SN-38 in tumors were measured by high performance liquid chromatography (HPLC). Data were normalized to injected dose per tumor weight. […] Cell growth inhibition kinetics of SN-38 in the cell lines was determined using IncuCyte® ZOOM System.

NCI-H1048 SCLC cell line [6] = test system: NCI-H1048 SCLC cell line
Protocol: as §1

NCI-H1048 SCLC cell line [7] = experiment: Cell growth inhibition kinetics, IncuCyte ZOOM System; assay type: cell-based; conditions: NCI-H1048, time-course of 88 hours
DMS53 SCLC cell line = experiment: SN-38 in vitro growth and viability assay; assay type: cell-based
SW1271 SCLC cell line = experiment: SN-38 in vitro growth and viability assay; assay type: cell-based
[8] = nal-IRI 16 mg/kg IV, topotecan 0.83 mg/kg/wk days 1-2 IP

Structure (SMILES): CC[C@@]1(O)C(=O)OCc2c1cc1n(c2=O)Cc2cc3c(CN(C)C)c(O)ccc3nc2-1 [topotecan]
- anti-tumor activity of bolus (day 1) compared to fractionated (days 1 & 2) dosing (DMS-114 xenograft [1]; same dose intensity, FIG. 15 (DMS-114, NCI-H1048)): less anti-tumor activity
- mice with complete tumor regressions after 4 cycles of treatment (NCI-H1048 xenograft [2]; Example 11, nal-IRI 16 mg/kg salt q1w, topotecan 0.83 mg/kg/week Day 1-2): 0 out of 7
- mice with complete regressions of their tumors (NCI-H1048 xenograft [2]; Example 15, n=10, nal-IRI 16 mg/kg IV, topotecan 0.83 mg/kg/wk days 1-2 IP): 0 out of 10
- anti-tumor activity / response (in words) (NCI-H1048 xenograft [2]; [8]): limited tumor growth control
- anti-tumor activity / response (in words) (DMS-53 xenograft): limited tumor growth control
- overall survival ([3]; all patients): 7.8 months
- overall survival ([3]; refractory patients): 5.7 months
- overall survival ([3]; sensitive patients): 9.9 months
- grade 3 or greater diarrhea [3]: less than 5%
- grade 3 or greater neutropenia rates [3]: 28-88%
- overall response rates [3]: 7-24%
- overall survival (OS) [3]: 5.0-8.9 months
- progression free survival (PFS) [3]: 3.1-3.7 months
- anti-tumor activity in carboplatin plus etoposide-treated SCLC tumors (in words) (NCI-H1048 xenograft [4]): seems to be active after 1-2 cycles but progress quickly after 3rd dose

Structure (SMILES): CCc1c2c(nc3ccc(OC(=O)N4CCC(N5CCCCC5)CC4)cc13)-c1cc3c(c(=O)n1C2)COC(=O)[C@]3(O)CC [non-liposomal irinotecan, (S)-4,11-diethyl-3,4,12,14-tetrahydro-4-hydroxy-3,14-dioxo1H-pyrano[3′,4′:6,7]-indolizino[1,2-b]quinolin-9-yl-[1,4′bipiperidine]-1′-carboxylate]
- anti-tumor activity / response (in words) (DMS-114 xenograft [1]; DMS-114, nal-IRI 16 mg/kg IV, irinotecan 33 mg/kg IV, topotecan 0.83 mg/kg/wk days 1-2 IP, weekly): became less responsive after 2-3 cycles
- anti-tumor activity / response (in words) (NCI-H1048 xenograft [2]; [8]): progress after initially responding to treatment
- grade 3 or greater diarrhea [3]: 0-13%
- grade 3 or greater neutropenia rates [3]: 21-23%
- overall response rates [3]: 0-33%
- overall survival (OS) [3]: 4.6-6.9 months
- progression free survival (PFS) [3]: 1.7-2.8 months
- anti-tumor activity in carboplatin plus etoposide-treated SCLC tumors (in words) (NCI-H1048 xenograft [4]): active but after 3rd cycle some tumors are trending regrowth
- responsiveness of topotecan-treated DMS114 tumors (DMS-114 xenograft [5]): not

Structure (SMILES): CCc1c2c(nc3ccc(O)cc13)-c1cc3c(c(=O)n1C2)COC(=O)[C@]3(O)CC [SN-38]
- concentration with cell killing after prolonged incubation times (DMS-114 SCLC cell line): ≥ 10 nM
- concentration with effective cell growth inhibition (DMS-114 SCLC cell line): 1 to 10 nM
- decrease in cell viability (DMS114 SCLC cell line): > 90%
- decrease in cell viability (NCI-H1048 SCLC cell line [6]): > 90%
- concentration with cell killing after prolonged incubation times (NCI-H1048 SCLC cell line [7]): ≥ 10 nM
- concentration with effective cell growth inhibition (NCI-H1048 SCLC cell line [7]): 1 to 10 nM
- decrease in cell viability (DMS53 SCLC cell line): > 90%
- decrease in cell viability (SW1271 SCLC cell line): > 90%
